Source: US6548528B2, “Pesticidal pyrazoles and derivatives” (Rhone-Poulenc Agro, priority 1996, dated 2003)

System: termites
Experiment: Soil treatment at discrete locations around a house to be built, protection against termites (Example 1)
Type: in vivo
Details: for attack of termite observed: 1 year after building the house, 0.01 g/m^2 of soil at future corners and wall crossings, treated area 5 m per 10 m of perimeter
From the text: In an area where termites are passing or traveling, plans for a house are made. The plans are that the house will have a rectangular shape of 15 m×10 m with 4 rooms at the lower level.
Compound (A) is actually put on the soil at a rate of 0.01 g/m^2 of the soil at the location of the future corners of the house and at the crossing of the walls corresponding to each room according to the following scheme: [drawing 2]
The treated area represents 5 m per 10 m of perimeter.

With `N#Cc1nn(-c2c(Cl)cc(C(F)(F)F)cc2Cl)c(N)c1[S+]([O-])C(F)(F)F` (stereo not drawn) [Compound (A), 5-amino 1-(2,6-dichloro 4-trifluoromethylphenyl) 4-trifluoromethylsulfinyl 3-cyanopyrazole] the “attack of termite observed” value was “no attack of termite”.
In the case of `CCOP(=S)(OCC)Oc1nc(Cl)c(Cl)cc1Cl` [chlorpyrifos], the “attack of termite observed” value is reported as “strong attack of termites” and the “holes in parts of the walls, % of the volume” value (one year after building the house, similar experiment to Example 1) is reported as “more than 10%”.
